From patent publication US4797284A, “Transdermal drug delivery system” (Merck & Co., Inc., priority 1986, dated 1989)

Legend:
Assay type in all cases: physicochemical
[1] = diffusion coefficient of drug in the reservoir (Dr), release from drug-bearing film into stirred receptor solution; details: 30 percent w/w vinyl acetate-acrylate copolymer in 53:11:36 ethyl acetate:toluene:ethanol (Gelva RA-737); timolol free base
Procedure: When a solid reservoir is employed, the diffusion coefficient of the drug in the reservoir, Dr, is determined by first dissolving the drug to be used in a solution of matrix-forming polymer at a concentration below the saturation solubility of the drug in the polymer solution, and then coating the solution and allowing the coating to dry or curing the coating to form a drug bearing film. The coating may be made on a releasable surface so that a free film is employed in the diffusion coefficient determination or may be made on an impermeable backing material in which case the film with backing is employed in making the determination. […] The receptor solution, which is maintained at a constant temperature, preferably 32° C., is sampled at appropriate intervals and quantitative determination of drug concentration made by HPLC (high pressure liquid chromatography) with UV detection or by other suitable means based on the physical-chemical characteristics of the drug. The value for Dr is then determined by a nonlinear regression fit of observed data to either the earlier time or the late time approximation as is appropriate for drug release from a continuous matrix containing only dissolved drug as discussed in Baker et al, "Controlled Release: Mechanisms and Rates" in Advances in Experimental Medicine and Biology, Vol 47, page 41, Eds. Tanquary et al, Plenum Press, N.Y., 1974. […]

[2] = crystallization of dissolved drug in unitary solid reservoir of dissolved and undissolved drug
From the text: Generally, the structure of a transdermal bandage or device consists of (a) a transdermal delivery system comprising an impermeable backing, a drug-containing reservoir, a rate-controlling membrane on the side to be ultimately proximate to the skin of the patient and (b) a means of attaching the system to the dermal surface. In the known systems, the reservoir, the source of supply for the drug, whether a single solid unit, a walled unit or a unit employing drug containing micro-capsules within the reservoir structure, contains the drug partly in particulate form and partly in solution i.e., contains drug in excess of its saturation solubility. During use, the drug in solution migrates to the permeable membrane surface, passes through the membrane and onto the skin for absorption. As the dissolved drug passes through the membrane some of the undissolved drug dissolves and there is, until the supply of undissolved drug is exhausted, a mixture of both dissolved and undissolved drug in the reservoir. The presence of dissolved and undissolved drug is considered necessary to provide for the near zero order rate of delivery, zero order being the rate of delivery which is constant or independent of time. […]

[3] = diffusion coefficient of drug in the membrane (Dm), side-by-side diffusion cell; details: 7.5 percent ethylene vinyl acetate copolymer film (PE-75)
Procedure: The diffusion coefficient of drug in the membrane, Dm or Dm', is determined by mounting the membrane between two chambers of a side-by-sidediffusion cell. A determined amount of drug in solution (donor phase) is placed in one chamber and a receptor solvent in the other, into which the drug diffuses and in which it will remain substantially below its saturation solubility (receptor phase). The cells are stirred while maintained in a constant temperature bath, preferably at 32° C. The receptor phase is sampled from time to time and assayed for drug, and steady state flux through the membrane calculated. Km, the partition coefficient between the donor solution and membrane, is determined by equilibrating a known volume of donor solution at 32° C., then assaying the solution for change in drug concentration to determine partitioning between membrane and donor. The diffusion coefficient of the drug in the membrane is calculated from the steady state Fick's law equation, which for semi-permeable membrane is
Initially, Dr was determined for timolol in a commercially available acrylate film-forming material, a 30 percent weight/weight (w/w) vinyl acetate-acrylate copolymer in 53:11:36 ethyl acetate:toluene:ethanol solvent (Gelva® RA-737 multipolymer solution obtained from Monsanto) in the manner previously described. […]

Dr (diffusion coefficient of drug in reservoir) [1]: 1.58×10^-6 cm^2 /hour | Dm (diffusion coefficient of drug in membrane) [3]: 2.85×10^-6 cm^2 /hour
Structure (SMILES): CC(C)(C)NC[C@H](O)COc1nsnc1N1CCOCC1 [timolol]
crystallization of dissolved drug after fabrication [2]: the dissolved drug often slowly crystallizes subsequent to fabrication
